Results on one compound are retold here after paper PMC9006931, “Altered Response Pattern following AZD5582 Treatment of SIV-Infected, ART-Suppressed Rhesus Macaque Infants” (Journal of Virology, 2022).

The experiment concerns SIVmac251. In words: On-ART viremia (latency reversal) during AZD5582 treatment of SIV-infected, ART-suppressed infant RMs. It is filed as in vivo, rhesus macaque (Macaca mulatta). An excerpt: In this study, latency reversal was defined as a plasma SIV RNA level above 60 copies/mL during AZD5582 treatment in the presence of continued daily ART (or, “on-ART viremia”). […] On-ART viremia peaked at 771 copies/mL in RVf20 2 days post-dose 9. […] This low-level viremia contrasts, however, with the sustained suppression below 60 copies/mL in the 10 months before AZD5582 treatment in these 3 infants (Fig. 1B).
Twelve infant, Indian RMs (Macaca mulatta), with the exclusion of Mamu B*08- and B*17-positive animals, were enrolled in this study. The animals were born at the Yerkes National Primate Research Center (YNPRC) to dams housed in indoor/outdoor group housing. The infants were removed from the dams when they were approximately 2 weeks old and transferred to an indoor nursery, where they were housed in social pairs with either full contact or protected contact for the duration of the study. The infants were fed in accordance with the YNPRC standard operating procedures (SOPs) for NHP feeding. After being removed from the dam, infants were fed center-approved milk replacer (Similac Advance, OptiGro Infant Formula with Iron and/or Similac Soy Isomil OptiGro Infant Formula with Iron; Abbott Nutrition, Columbus, OH) until 14 weeks of age. Infants were provided softened standard primate jumbo chow biscuits (Jumbo Monkey Diet 5037; Purina Mills, St. Louis, MO) and a portion of orange starting between 2 to 4 weeks of age. As animals aged additional enrichment of various fresh produce items were provided daily. The animals were orally infected at 4 to 5 weeks of age with two consecutive doses of 10^5 TCID50 (50% tissue culture infectious doses) of SIVmac251. Three infants required multiple weekly 2-dose challenges before successful infection (totaling up to three challenges). Eight historical controls that followed the same regimen were included in this study. Yerkes National Primate Research Center is accredited by both the U.S. Department of Agriculture (USDA) and by the Association for Assessment and Accreditation of Laboratory Animal Care (AAALAC). All animal procedures were performed in accordance with guidelines established by the Emory University Institutional Animal Care and Use Committee Guidelines and those set up by the NIH’s Guide for the Care and Use of Laboratory Animals, 8th edition.
The 12 RM infants were treated with a potent three-drug ART regimen initiated at 4 weeks postinfection. The preformulation ART cocktail contained two reverse transcriptase inhibitors, 5.1 mg/kg tenofovir disoproxil fumarate (TDF) and 40 mg/kg emtricitabine (FTC), plus 2.5 mg/kg of the integrase inhibitor dolutegravir (DTG). This ART cocktail was administered once daily at […] via the subcutaneous route.
The IAPi AZD5582 was reconstituted to 0.4 mg/mL in 10% Captisol within 1 week of administration as previously described ([17]). Monkeys assigned to the experimental intervention group received 10 administrations of 0.1 mg/kg AZD5582 by intravenous (i.v.) infusion with an inline filter for 30 minutes every week for 10 weeks.
Plasma viral quantification was performed as described previously ([12]). The frozen cell pellet was lysed with proteinase K (100 μg/mL in 10 mM Tris-HCl pH 8) for 1h at 56°C. Quantification of SIVmac gag DNA was performed by quantitative PCR (qPCR) using the 5′ nuclease (TaqMan) assay with an ABI7500 system (PerkinElmer Life Sciences). The sequence of the forward primer for SIVmac gag was 5′-[…]-3′, the reverse primer sequence was 5′-[…]-3′, and the probe sequence was 5′-6-carboxyfluorescein (FAM)-[…]-6-carboxytetramethylrhodamine (TAMRA)-3′. 7.5 μL of cell lysate were mixed in a 50 μL reaction mixture containing 1× Platinum Buffer, 3.5 mM MgCl2, 0.2 mM dNTP, primers 200 nM, probe 150 nM, and 2U Platinum Taq. For cell number quantification, quantitative PCR was performed simultaneously for monkey albumin gene copy number. […]

[1] abbreviates: 10 weekly doses 0.1 mg/kg i.v., LOD 60 copies/mL.

As for `CN[C@@H](C)C(=O)N[C@H](C(=O)N1CCC[C@H]1C(=O)N[C@H]1c2ccccc2C[C@H]1OCC#CC#CCO[C@@H]1Cc2ccccc2[C@@H]1NC(=O)[C@@H]1CCCN1C(=O)[C@@H](NC(=O)[C@H](C)NC)C1CCCCC1)C1CCCCC1` [AZD5582], the “First instance of latency reversal, time after the 4th dose” value turned out to be 48 h and the “Start of on-ART viremia, time post-dose 4” value is given as 3 days. In addition, under setting [1], the “SIV reactivation, per animal (RMs with on-ART viremia above LOD)” value is 5/8 and the “SIV reactivation, per animal (percent of RMs with on-ART viremia)” value was found to be 63%. Further, the “SIV reactivation, events >60 copies/ml (percent of measurements)” value (135 measurements in the 5 RMs with on-ART viremia) is on record as 6%. For the same compound, for the setting “RVf20, 2 days post-dose 9”, the “Peak on-ART viremia” value is given as 771 copies/mL. In addition, the “SIV reactivation, events >60 copies/ml (measurements above LOD)” value (of 135 viral load measurements in the 5 RMs with on-ART viremia) is 8.
